Two compounds from the kinase profiling compilation of Christmann-Franck et al. (2016) can be followed below.

Holding throughout (assay): KINOMEscan competition binding
Details in all cases: compound 10.0 µM

The target in experiment [1] is AAK1 (human) (UniProt Q2M2I8).
Experiment [2] has as its target ANKK1 (human) (UniProt Q8NFD2).
The target in experiment [3] is BMPR1B (human) (UniProt O00238).
The target of experiment [4] is CAMK2A (human) (UniProt Q9UQM7).
In experiment [5] the target is CAMK2G (human) (UniProt Q13555).
Chain of CAMK2G (human) (Q13555 whole entry, looked up): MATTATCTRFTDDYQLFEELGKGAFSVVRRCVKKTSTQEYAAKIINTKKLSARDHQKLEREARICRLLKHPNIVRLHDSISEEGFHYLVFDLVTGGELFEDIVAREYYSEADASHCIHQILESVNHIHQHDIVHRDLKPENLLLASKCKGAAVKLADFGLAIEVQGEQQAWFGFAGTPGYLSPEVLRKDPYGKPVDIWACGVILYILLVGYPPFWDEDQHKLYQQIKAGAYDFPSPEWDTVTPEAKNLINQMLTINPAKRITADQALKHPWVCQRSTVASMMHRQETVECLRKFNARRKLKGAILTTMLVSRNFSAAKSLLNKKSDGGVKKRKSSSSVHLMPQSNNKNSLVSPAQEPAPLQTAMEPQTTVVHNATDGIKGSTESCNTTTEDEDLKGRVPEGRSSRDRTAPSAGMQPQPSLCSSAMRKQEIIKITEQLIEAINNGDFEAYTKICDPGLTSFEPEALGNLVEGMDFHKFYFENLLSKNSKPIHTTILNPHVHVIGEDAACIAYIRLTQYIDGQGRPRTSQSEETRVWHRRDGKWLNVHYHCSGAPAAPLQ
The target in experiment [6] is CDK16 (human) (UniProt Q00536).
Experiment [7] has as its target CSNK1G1 (human) (UniProt Q9HCP0).
Experiment [8] deals with EIF2AK2 (human) (UniProt P19525).
Experiment [9] concerns the target GAK (human) (UniProt O14976).
Experiment [10] addresses LATS2 (human) (UniProt Q9NRM7).
The target in experiment [11] is MAP2K6 (human) (UniProt P52564).
In experiment [12] the target is MAPK10 (human) (UniProt P53779).
The target of experiment [13] is MAPK14 (human) (UniProt Q16539).
Experiment [14] has as its target MAPK8 (human) (UniProt P45983).
Experiment [15] deals with MAPK9 (human) (UniProt P45984).
Chain of MAPK9 (human) (P45984 whole entry, looked up): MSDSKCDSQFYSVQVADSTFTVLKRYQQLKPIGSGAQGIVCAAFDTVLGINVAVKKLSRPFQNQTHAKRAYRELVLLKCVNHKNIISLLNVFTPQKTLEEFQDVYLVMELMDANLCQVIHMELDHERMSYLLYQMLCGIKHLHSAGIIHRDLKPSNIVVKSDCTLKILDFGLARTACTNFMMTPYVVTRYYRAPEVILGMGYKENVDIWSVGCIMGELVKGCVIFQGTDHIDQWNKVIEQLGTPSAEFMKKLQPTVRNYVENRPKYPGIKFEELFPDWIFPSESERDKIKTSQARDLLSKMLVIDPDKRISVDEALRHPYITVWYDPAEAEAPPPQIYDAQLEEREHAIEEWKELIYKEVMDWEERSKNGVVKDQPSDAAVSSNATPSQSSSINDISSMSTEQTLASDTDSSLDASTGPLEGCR
The target in experiment [16] is MINK1 (human) (UniProt Q8N4C8).
The target in experiment [17] is PAK7 (human) (UniProt Q9P286).
Experiment [18] concerns the target PIK3CB (human) (UniProt P42338).
Experiment [19] concerns the target PIM1 (human) (UniProt P11309).
In experiment [20] the target is PLK4 (human) (UniProt O00444).
In experiment [21] the target is RPS6KA1 KD2 (human) (UniProt Q15418).
The target of experiment [22] is RPS6KA2 KD2 (human) (UniProt Q15349).
In experiment [23] the target is RPS6KA6 KD2 (human) (UniProt Q9UK32).
Experiment [24] deals with SRPK1 (human) (UniProt Q96SB4).
The target in experiment [25] is STK25 (human) (UniProt O00506).
Chain of STK25 (human) (O00506 whole entry, looked up): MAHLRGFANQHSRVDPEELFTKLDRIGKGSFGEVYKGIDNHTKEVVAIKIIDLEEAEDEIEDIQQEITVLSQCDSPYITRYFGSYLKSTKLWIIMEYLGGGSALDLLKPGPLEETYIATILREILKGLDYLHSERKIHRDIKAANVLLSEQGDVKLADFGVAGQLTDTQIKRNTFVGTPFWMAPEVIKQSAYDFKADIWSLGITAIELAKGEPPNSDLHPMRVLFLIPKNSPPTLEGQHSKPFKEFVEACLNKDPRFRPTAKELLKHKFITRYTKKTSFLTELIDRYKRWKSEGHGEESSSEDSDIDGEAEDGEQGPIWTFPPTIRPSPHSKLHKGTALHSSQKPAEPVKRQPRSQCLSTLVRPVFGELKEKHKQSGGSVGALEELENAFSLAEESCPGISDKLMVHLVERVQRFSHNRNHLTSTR
For experiment [26], the target named is STK38L (human) (UniProt Q9Y2H1).
Experiment [27] has as its target TAOK3 (human) (UniProt Q9H2K8).
The target of experiment [28] is TLK1 (human) (UniProt Q9UKI8).
Experiment [29] addresses TLK2 (human) (UniProt Q86UE8).
Experiment [30] has as its target TNIK (human) (UniProt Q9UKE5).
Experiment [31] concerns the target ULK1 (human) (UniProt O75385).
The target in experiment [32] is ULK3 (human) (UniProt Q6PHR2).
Chain of ULK3 (human) (Q6PHR2 whole entry, looked up): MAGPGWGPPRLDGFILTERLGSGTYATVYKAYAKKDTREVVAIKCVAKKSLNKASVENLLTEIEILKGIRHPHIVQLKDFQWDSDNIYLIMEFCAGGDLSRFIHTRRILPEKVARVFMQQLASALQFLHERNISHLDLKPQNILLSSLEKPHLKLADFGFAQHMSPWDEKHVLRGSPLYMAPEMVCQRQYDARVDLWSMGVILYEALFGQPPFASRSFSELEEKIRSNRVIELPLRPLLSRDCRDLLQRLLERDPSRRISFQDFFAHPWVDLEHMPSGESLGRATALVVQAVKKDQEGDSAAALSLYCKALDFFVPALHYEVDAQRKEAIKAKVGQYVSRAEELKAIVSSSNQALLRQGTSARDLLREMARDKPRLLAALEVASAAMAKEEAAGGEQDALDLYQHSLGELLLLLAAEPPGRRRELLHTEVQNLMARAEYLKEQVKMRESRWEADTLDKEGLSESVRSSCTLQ
Experiment [33] has as its target ZAP70 (human) (UniProt P43403).
The target of experiment [34] is AKT2 (human) (UniProt P31751).
Experiment [35] deals with CDK11A (human) (UniProt Q9UQ88).

Chain of TLK2 (human) (Q86UE8 whole entry, looked up): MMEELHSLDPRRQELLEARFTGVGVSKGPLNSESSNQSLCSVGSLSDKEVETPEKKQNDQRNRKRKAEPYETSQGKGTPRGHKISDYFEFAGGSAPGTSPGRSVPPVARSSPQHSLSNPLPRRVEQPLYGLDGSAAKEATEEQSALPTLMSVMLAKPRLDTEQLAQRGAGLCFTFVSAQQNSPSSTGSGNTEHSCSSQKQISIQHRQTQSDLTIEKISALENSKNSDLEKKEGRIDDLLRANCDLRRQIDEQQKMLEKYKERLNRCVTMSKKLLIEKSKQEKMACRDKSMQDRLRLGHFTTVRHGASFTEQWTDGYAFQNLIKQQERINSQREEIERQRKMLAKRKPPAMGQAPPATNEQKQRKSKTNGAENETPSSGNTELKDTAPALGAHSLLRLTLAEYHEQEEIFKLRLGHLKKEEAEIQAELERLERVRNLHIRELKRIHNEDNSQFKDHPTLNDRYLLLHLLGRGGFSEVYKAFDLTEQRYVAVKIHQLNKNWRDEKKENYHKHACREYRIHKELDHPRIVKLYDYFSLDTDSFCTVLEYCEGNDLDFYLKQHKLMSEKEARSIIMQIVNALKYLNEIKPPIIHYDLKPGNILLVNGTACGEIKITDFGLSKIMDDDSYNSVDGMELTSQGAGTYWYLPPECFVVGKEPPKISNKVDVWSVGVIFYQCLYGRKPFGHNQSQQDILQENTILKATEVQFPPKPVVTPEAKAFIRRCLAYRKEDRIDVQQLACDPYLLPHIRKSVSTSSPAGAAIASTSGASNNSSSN
Chain of AAK1 (human) (Q2M2I8 whole entry, looked up): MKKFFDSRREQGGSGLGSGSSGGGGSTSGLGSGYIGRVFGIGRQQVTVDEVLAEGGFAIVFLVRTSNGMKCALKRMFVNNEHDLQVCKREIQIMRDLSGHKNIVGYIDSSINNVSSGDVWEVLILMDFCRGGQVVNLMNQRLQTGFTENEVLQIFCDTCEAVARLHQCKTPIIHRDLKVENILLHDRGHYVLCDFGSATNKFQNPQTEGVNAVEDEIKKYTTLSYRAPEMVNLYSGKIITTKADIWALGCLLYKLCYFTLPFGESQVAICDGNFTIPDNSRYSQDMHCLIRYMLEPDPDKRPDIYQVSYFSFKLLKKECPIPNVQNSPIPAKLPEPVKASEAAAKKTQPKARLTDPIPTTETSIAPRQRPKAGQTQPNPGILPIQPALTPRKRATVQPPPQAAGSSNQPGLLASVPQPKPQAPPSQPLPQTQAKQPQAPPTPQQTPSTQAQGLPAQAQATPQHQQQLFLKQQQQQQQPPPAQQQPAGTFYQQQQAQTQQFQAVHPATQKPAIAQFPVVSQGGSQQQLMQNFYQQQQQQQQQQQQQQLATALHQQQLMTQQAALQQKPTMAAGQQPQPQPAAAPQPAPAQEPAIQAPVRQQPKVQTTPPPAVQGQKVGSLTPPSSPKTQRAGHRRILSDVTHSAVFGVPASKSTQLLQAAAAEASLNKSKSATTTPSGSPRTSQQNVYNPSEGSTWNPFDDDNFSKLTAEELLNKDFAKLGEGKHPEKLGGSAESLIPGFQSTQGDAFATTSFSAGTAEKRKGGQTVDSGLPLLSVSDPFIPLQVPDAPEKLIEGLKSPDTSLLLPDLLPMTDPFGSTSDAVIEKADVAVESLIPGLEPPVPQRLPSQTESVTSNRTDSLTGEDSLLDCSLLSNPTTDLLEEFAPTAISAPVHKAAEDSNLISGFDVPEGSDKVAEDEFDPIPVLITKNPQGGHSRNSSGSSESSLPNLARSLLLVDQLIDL
Chain of ANKK1 (human) (Q8NFD2 whole entry, looked up): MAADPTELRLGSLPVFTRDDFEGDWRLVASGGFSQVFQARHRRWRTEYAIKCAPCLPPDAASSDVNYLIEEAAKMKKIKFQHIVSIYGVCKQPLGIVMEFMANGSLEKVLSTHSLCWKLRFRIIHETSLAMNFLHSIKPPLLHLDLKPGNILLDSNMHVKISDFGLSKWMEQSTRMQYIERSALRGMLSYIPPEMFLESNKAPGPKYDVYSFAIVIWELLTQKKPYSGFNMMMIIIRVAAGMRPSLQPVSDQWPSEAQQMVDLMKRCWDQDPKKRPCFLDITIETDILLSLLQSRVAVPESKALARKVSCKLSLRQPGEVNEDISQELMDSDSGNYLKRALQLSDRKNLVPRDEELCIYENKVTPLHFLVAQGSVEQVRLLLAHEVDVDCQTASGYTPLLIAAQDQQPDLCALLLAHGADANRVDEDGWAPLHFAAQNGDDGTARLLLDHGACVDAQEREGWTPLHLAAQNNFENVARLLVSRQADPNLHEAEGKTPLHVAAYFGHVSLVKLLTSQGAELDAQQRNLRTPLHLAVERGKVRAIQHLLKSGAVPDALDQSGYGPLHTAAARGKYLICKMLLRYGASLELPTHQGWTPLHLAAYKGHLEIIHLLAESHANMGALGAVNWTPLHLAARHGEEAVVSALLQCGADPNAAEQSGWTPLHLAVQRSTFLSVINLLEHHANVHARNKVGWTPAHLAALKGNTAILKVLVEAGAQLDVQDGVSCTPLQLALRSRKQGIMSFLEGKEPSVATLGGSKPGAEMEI
Chain of MAPK8 (human) (P45983 whole entry, looked up): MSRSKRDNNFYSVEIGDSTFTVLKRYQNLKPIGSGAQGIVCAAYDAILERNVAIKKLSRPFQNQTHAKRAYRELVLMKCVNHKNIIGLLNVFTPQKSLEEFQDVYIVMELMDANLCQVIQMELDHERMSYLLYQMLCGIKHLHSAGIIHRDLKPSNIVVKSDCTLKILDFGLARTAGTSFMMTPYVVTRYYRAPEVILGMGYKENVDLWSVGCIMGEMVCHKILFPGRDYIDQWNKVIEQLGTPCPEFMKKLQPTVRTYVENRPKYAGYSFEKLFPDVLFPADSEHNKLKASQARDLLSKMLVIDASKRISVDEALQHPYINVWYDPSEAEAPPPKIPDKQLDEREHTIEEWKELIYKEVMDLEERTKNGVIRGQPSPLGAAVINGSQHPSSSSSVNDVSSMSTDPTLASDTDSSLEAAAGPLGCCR

`NS(=O)(=O)c1ccc(-c2ccc(/C=C3\SC(=S)N(CC(=O)O)C3=O)o2)cc1`: the kinase still bound, per cent of control is 34% in experiment [1]; 31% in experiment [2]; 27% in experiment [3]; 34% in [4]; 33% in [5]; 0.35% in experiment [6]. Besides, the kinase still bound, per cent of control in experiment [7] was 27%; in experiment [8], 32%; in [9] it was 20%; in [10], 25%; in experiment [11], 32%; in experiment [12], 30%. Besides, the kinase still bound, per cent of control in [13] worked out at 20%; in experiment [14] it was 22%; in experiment [15], 21%; in experiment [16] it was 23%; in [17], 22%; in [18], 29%. Moreover, the kinase still bound, per cent of control in [19] was 33%; in experiment [20], 0.35%; in [21], 29%; in experiment [22], 22%; in experiment [23], 32%; in experiment [24] it was 22%. Further, the kinase still bound, per cent of control in experiment [25] was 34%; in experiment [26], 19%; in experiment [27], 34%; in experiment [28], 22%; in [29], 25%; in experiment [30] it was 32%. Also, the kinase still bound, per cent of control in experiment [31] was found to be 29%; in experiment [32] it was 26%; in [33], 21%.
Consider `O=C1NC(=O)C(=Cc2ccc(-c3ccc(F)cc3O)o2)C(=O)N1`, for which the kinase still bound, per cent of control was found to be 17% in [34] and 31% in experiment [35].
